Experimental data published in PubChem BioAssay (NCI).
Several values for one entry are separate records, joined by “and”; a condition that tells them apart may be missing. Identical values can stand only once.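 48-hour exposure; five concentrations; linearly interpolated endpoints. GI50: concentration for 50% inhibition of growth. Definition used: TGI = concentration required for complete inhibition of growth.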

How the values were obtained:
Assay in all cases: DTP human tumour cell line panel, 48 h
HCT-116 colon = system: HCT-116 colon
HCT-15 colon = system: HCT-15 colon
NCI-H522 lung = system: NCI-H522 lung
OVCAR-5 ovarian = system: OVCAR-5 ovarian
KM12 colon = system: KM12 colon
ACHN renal = system: ACHN renal
SK-MEL-5 melanoma = system: SK-MEL-5 melanoma
UO-31 renal = system: UO-31 renal
A549 NSCLC = system: A549 NSCLC
HT29 colon = system: HT29 colon

Row | Structure (SMILES) | GI50 (HCT-116 colon) | TGI (HCT-116 colon) | GI50 (HCT-15 colon) | TGI (HCT-15 colon) | GI50 (NCI-H522 lung) | TGI (NCI-H522 lung) | GI50 (OVCAR-5 ovarian) | TGI (OVCAR-5 ovarian) | GI50 (KM12 colon) | TGI (KM12 colon) | GI50 (ACHN renal) | TGI (ACHN renal) | GI50 (SK-MEL-5 melanoma) | TGI (SK-MEL-5 melanoma) | GI50 (UO-31 renal) | TGI (UO-31 renal) | GI50 (A549 NSCLC) | TGI (A549 NSCLC) | GI50 (HT29 colon) | TGI (HT29 colon)
1 | C[C@H]1[C@H](C)CC[C@]2(C(=O)O)CC[C@]3(C)C(=CC[C@@H]4[C@@]5(C)C/C(=C/c6cccnc6)[C@H](O)C(C)(C)[C@@H]5CC[C@]43C)[C@H]12 | 10.7 µM | 26.8 µM | 10.7 µM | 52 µM | 13 µM | 94.3 µM | 20.9 µM | 64.8 µM | 7.61 µM | 36.1 µM | 10.2 µM | > 100 µM | 13.7 µM | 35.7 µM | 12.5 µM | 26.4 µM | 5.27 µM | 62.4 µM | 14.4 µM | 33.9 µM
2 | CC(=O)O[C@@H]1CC2C(C)(C)CCCC2(C)C2=C1C(=O)C(C(C)C)=CC2=O (some centres not stated) | 0.467 µM | 2.8 µM | 0.536 µM | 2.49 µM | 1.76 µM | 3.98 µM | 2.26 µM | 5.32 µM | 1.14 µM | 2.68 µM | 0.644 µM | 1.96 µM | 0.581 µM | 1.84 µM | 0.519 µM | 1.8 µM | 1.43 µM | 5.83 µM | 2.03 µM | 5.54 µM
3 | CC(=O)c1cc([N+](=O)[O-])ccc1OCC(=O)O | – | > 100 µM | – | > 100 µM | – | > 100 µM | – | > 100 µM | – | > 100 µM | – | > 100 µM | – | > 100 µM | – | > 100 µM | – | > 100 µM | – | > 100 µM
4 | O=C1C(Cl)=C(Nc2cccc(O)c2)C(=O)N1c1cc(Cl)c(Cl)cc1Cl | 15.8 µM | 30.2 µM | 15.1 µM | 30.1 µM | 14.3 µM | 28 µM | 24.2 µM | 48.2 µM | 16.5 µM | 34.3 µM | 14.4 µM | 27.5 µM | 11 µM | 23.3 µM | 13.5 µM | 26.4 µM | 21.7 µM | 47.5 µM | 18 µM | 40 µM
5 | O=C(CN1CCN(c2ccccc2)CC1)N1CCc2c([nH]c3ccccc23)C1c1cccnc1 (configuration not stated) | – | 21.3 µM | – | > 100 µM | – | > 85.7 µM | – | > 100 µM | – | > 100 µM | – | > 100 µM | – | > 100 µM | – | > 100 µM | – | > 100 µM | – | > 100 µM
6 | CC(=O)[O-].CC(=O)[O-].[NH2-].[Pt+2].c1ccc2cnccc2c1 | 15.1 µM | 33.7 µM | 16.9 µM | 45.8 µM | 12.4 µM | 24.9 µM | > 100 µM | > 100 µM | 13.5 µM | > 100 µM | 2.26 µM | 13.4 µM | 38.4 µM | > 100 µM | 22.9 µM | 97.5 µM | 0.147 µM | 15.7 µM | 24.5 µM | > 100 µM
7 | C[C@@H]1COCCN1c1cc(C2(S(C)(=N)=O)CC2)nc(-c2ccnc3[nH]ccc23)n1 (some centres not stated) | 4.05 µM | > 100 µM | 3.98 µM | > 100 µM | 6.92 µM | 43.1 µM | 3.3 µM | 16.7 µM | 5.72 µM | 63.1 µM | 0.592 µM | 4.3 µM | 4.17 µM | 35 µM | 2.55 µM | 22.8 µM | 3.35 µM | 35.2 µM | 6.95 µM | > 100 µM
8 | OCc1ccc(-c2nn(Cc3ccccc3)c3ccccc23)o1 | 1.65 µM and 8.72 µM | 20 µM and 22.7 µM | 17.4 µM and 20.1 µM | 49.2 µM and 41.4 µM | 12 µM and 20.6 µM | 28.2 µM and > 58.7 µM | 0.564 µM and 0.0852 µM | – | 16.9 µM and 16.6 µM | 35.2 µM and 34.5 µM | 19.8 µM and 16 µM | 91.9 µM and 39.8 µM | 13.7 µM and 14.2 µM | 26.7 µM and 27.3 µM | 13.7 µM and 23.8 µM | 57.4 µM and > 84.7 µM | 15.6 µM and 18.5 µM | 47.7 µM and > 56.9 µM | 15 µM and 32.8 µM | 32.2 µM and > 100 µM
9 | COc1nc2nccc-2c2occn12 | – | > 100 µM | – | > 100 µM | – | > 100 µM | – | > 100 µM | – | > 100 µM | – | > 100 µM | – | > 100 µM | – | > 100 µM | – | > 100 µM | – | > 100 µM
10 | Cc1ccc(NC(=O)/C(=N\Nc2ccc([N+](=O)[O-])cc2[N+](=O)[O-])C2C(=O)NC(=O)NC2=O)cc1 | – | > 100 µM | – | > 100 µM | – | > 100 µM | – | > 100 µM | – | > 100 µM | – | > 100 µM | – | > 100 µM | – | > 100 µM | – | > 100 µM | – | > 100 µM
11 | Cc1nc2sc(C(=O)Nc3ccccc3)c(N)c2cc1C(=O)/C=C/c1ccccc1 | 1.46 µM | 2.97 µM | 1.57 µM | 3.63 µM | 1.77 µM | 4.24 µM | 2.31 µM | 7.13 µM | 1.73 µM | 3.38 µM | 1.81 µM | 3.45 µM | 2.27 µM | 5.98 µM | 1.54 µM | 2.89 µM | 2.08 µM | 4.91 µM | 1.77 µM | 3.95 µM
12 | CN(C)CCCN1CCc2c([nH]c3ccccc23)C1c1cccnc1 (configuration not stated) | – | > 100 µM | – | > 100 µM | – | > 100 µM | – | > 100 µM | – | > 100 µM | – | > 100 µM | – | > 100 µM | – | > 100 µM | – | > 100 µM | – | > 100 µM
13 | CCCCN(Cc1ccc(F)cc1)c1ccc(CO)c(Cl)c1 | 0.906 µM | 13.2 µM | 13.4 µM | 28.5 µM | 15 µM | 30.1 µM | 0.531 µM | 2.9 µM | 17.5 µM | 33 µM | 15.4 µM | 29.7 µM | 14.3 µM | 27.5 µM | 10.6 µM | 23.6 µM | 7.38 µM | 21.6 µM | 13.7 µM | 29.1 µM
14 | Cc1ccc(C(O)c2cnc(C)n2Cc2ccccc2)cc1 (configuration not stated) | – | > 100 µM | – | > 100 µM | – | > 100 µM | – | > 100 µM | – | > 100 µM | – | > 100 µM | – | > 100 µM | – | > 100 µM | – | > 100 µM | – | > 100 µM
15 | CC1C(=O)C(C)C(c2ccccc2)N(N=O)C1c1ccccc1 (configuration not stated) | – | 354 µM | > 1000 µM | > 1000 µM | > 385 µM | > 601 µM | – | > 881 µM | – | > 684 µM | – | 341 µM | – | > 605 µM | 268 µM | > 829 µM | – | > 1000 µM | – | > 833 µM
16 | N#C/C(=C\c1cccc(O)c1)C(N)=O | – | > 100 µM | – | > 100 µM | – | > 100 µM | – | > 100 µM | – | > 100 µM | – | > 100 µM | – | > 100 µM | – | > 100 µM | – | > 100 µM | – | > 100 µM
17 | O=C1C2=C(c3ccccc31)C(c1ccccc1)NC(=S)N2 (configuration not stated) | – | > 100 µM | – | > 100 µM | – | > 100 µM | – | > 100 µM | – | > 100 µM | – | > 100 µM | – | > 100 µM | – | > 100 µM | – | > 100 µM | – | > 100 µM
18 | OCCCCCCOc1ccc(-c2cc(-c3ccccn3)nc(-c3ccccn3)c2)cc1 | – | 1.48 µM | – | > 33.1 µM | – | 3.32 µM | – | 4.14 µM | – | 2.42 µM | – | 5.22 µM | – | 3.48 µM | – | 2.45 µM | – | 6.42 µM | – | 11.8 µM
19 | C=C1CC[C@@H]2[C@](C)(COC(C)=O)[C@H](OC(C)=O)CC[C@@]2(C)[C@@H]1CC(Nc1ccc(S(=O)(=O)Nc2nccc(C)n2)cc1)C1=CCOC1=O (some centres not stated) | 1.6 µM | 3.56 µM | 1.79 µM | 4.24 µM | 1.26 µM | 3.1 µM | 3.86 µM | 12.8 µM | 4.59 µM | 16.4 µM | 3.64 µM | 13 µM | 3.79 µM | 14 µM | 2.91 µM | 10.6 µM | 8.19 µM | 21.9 µM | 2.02 µM | 4.24 µM
20 | Nc1nc2c(c(=O)[nH]1)CN(c1ccc(S(N)(=O)=O)cc1)CN2 | – | > 100 µM | – | > 100 µM | – | > 100 µM | – | > 100 µM | – | > 100 µM | – | > 100 µM | – | > 100 µM | – | > 100 µM | – | > 100 µM | – | > 100 µM
21 | CN(CCOc1ccc(C#N)cc1)CCOc1ccc(C#N)cc1 | 60.5 µM | > 100 µM | 25.4 µM | > 100 µM | 4.98 µM | > 100 µM | > 100 µM | > 100 µM | 16.6 µM | 66.2 µM | 41.5 µM | > 100 µM | 78.6 µM | > 100 µM | 18.7 µM | > 100 µM | > 100 µM | > 100 µM | > 100 µM | > 100 µM
22 | CC(=O)n1c2ccccc2c2nc3nc(Oc4ccc(C)cc4)c4ccccc4c3cc21 | – | > 100 µM | – | > 100 µM | – | > 100 µM | – | > 100 µM | – | > 100 µM | – | > 100 µM | – | > 100 µM | – | > 100 µM | – | > 100 µM | – | > 100 µM
23 | COc1cc([C@@H]2c3cc4c(cc3[C@@H](NC(=O)c3ccccc3)C3COC(=O)[C@@H]32)OCO4)cc(OC)c1O (some centres not stated) | – | 28.8 µM | – | > 100 µM | – | 26.2 µM | – | > 100 µM | – | 28.3 µM | – | 5.55 µM | – | 14.1 µM | – | 23.5 µM | – | 16.6 µM | – | 22 µM
